# Source: patent US20220402925A1, “COMPOUNDS AND METHODS FOR THE TREATMENT OF CYSTIC FIBROSIS” (Flatley Discovery Lab, LLC, priority 2019, published 2022)
# Biological target: T1, F508del CFTR (Homo sapiens, UniProt P13569, DEL508-508)
# T1 construct: Primary CF airway epithelial cells were obtained from the UNC Cystic Fibrosis Tissue Procurement and Cell Culture Core; host or cells: primary CF airway epithelial cells
# Test: Equivalent current assay in primary CF airway epithelial cells (Corrector Activity, NAUC normalized to 3 μM VX809)
# Type: cell-based
# Settings: NAUC as % of positive control (VX-809)
# Protocol: Primary CF airway epithelial cells were obtained from the UNC Cystic Fibrosis Tissue Procurement and Cell Culture Core. The cells are grown at 37° C. in a Heracell 150i incubator using growth media (BEGM, Fischer). Cells were then transferred to differentiation media (airway liquid interface media (ALI) media; Lechner J F and LaVeck M A, J. Tissue Culture Methods 1985, 9: 43-48) for a minimum of 4 weeks on coated Costar transwells. Two days before the assay the mucus on the apical surface of the cells was aspirated after incubating with 200 μL of differentiation media for at least thirty (30) minutes. One day before the assay test compounds were added to the basolateral surface of the cells at various test concentrations dissolved in DMSO. Duplicate wells were prepared giving a n=4 or n=6 protocol.
# Cells were treated for 24 hours with various combinations and concentrations of the test articles, reference standard (3 μM VX809, positive control). Compounds stock solutions were prepared in DMSO and diluted 1/1000 into ALI media to their final assay concentration. Cells were treated with combination solutions (2 mL of each dilution) and incubated at 37° C. for 24 h.
# For the equivalent current assay, cells on six Transwell (24-well) plates were treated. Each Transwell plate was filled with 200 μl of HBS on the apical surface and 2 ml on the basolateral surface. Plates were placed horizontally in a heated mount at 37° C. and equilibrated for 30 minutes. Resting current was measured for 15 min and then blocked by the apical addition of 5 μM benzamil. After 20 min, CFTR activator (10 μM forskolin) and potentiator (either 1 μM VX-770 or 3 μM FDL176) were added to both the apical and basolateral side to stimulate CFTR. An increase in chloride current is seen as an upward deflection of the trace. After another 60 min, CFTR-172 (a CFTR inhibitor, 20 μM) and/or bumetanide (20 uM) was added to block CFTR mediated chloride current.
# The raw data, voltage vs. time and resistance vs. time for the equivalent current assay (sampling interval: 6 minutes) were transferred to Excel (Microsoft Office Professional, version 14.0.7106.5003) for analysis. CFTR specific current was computed from I=V/R (Ohms Law), the average amplitude of the increase in current elicited upon addition forskolin and ending upon addition of the CFTR channel specific blocker CFTR-172. This average is equivalent to the sum of the average forskolin activated and the average VX770-potentiated currents. The average current measured in vehicle (0.1% DMSO) treated cells, IV, was subtracted from the current for the test article, ITA, or from the corrector reference standard VX809 (3 uM, ISTD). For replicate measurements, the averaged vehicle subtracted response for the test article, was normalized to the averaged vehicle subtracted response of the reference corrector VX809 (3 μM).
# INSC=(ITA−IV)(ave)/(ISTD−IV)(ave) (Equation 1)
# A second endpoint, for the equivalent current assay, evaluated was NAUC, the normalized area under the curve (AUC) measuring the response after addition of forskolin and potentiator to the time point right before the addition of the CFTR inhibitor. The AUC is effectively the average response multiplied by the duration of the response. The AUC of the test article, AUCTA was then corrected by subtracting the average vehicle response, AUCV,ave over the same time range, and normalized as for the inhibitor-sensitive current to the difference of the corrector reference standard VX809 (3 μM VX809r,ave and the vehicle response:
# NAUCTA=[AUCTA−AUCV,ave]/[AUCVx809r,ave−AUCV,ave] (Equation 2).
# The normalized value for DMSO is 0.0 and for VX-809 alone is 1.0 for both of these equations.
# Experiments were run with a minimum of n=4 replicates per concentration. Since the distribution for the ratio of two normal distributions is a Cauchy distribution, the median value must be used for the average and the average deviation must be used for the error of all normalized data. […]
# T1 sequence (P13569 with tags, fused parts or gaps DEL508-508): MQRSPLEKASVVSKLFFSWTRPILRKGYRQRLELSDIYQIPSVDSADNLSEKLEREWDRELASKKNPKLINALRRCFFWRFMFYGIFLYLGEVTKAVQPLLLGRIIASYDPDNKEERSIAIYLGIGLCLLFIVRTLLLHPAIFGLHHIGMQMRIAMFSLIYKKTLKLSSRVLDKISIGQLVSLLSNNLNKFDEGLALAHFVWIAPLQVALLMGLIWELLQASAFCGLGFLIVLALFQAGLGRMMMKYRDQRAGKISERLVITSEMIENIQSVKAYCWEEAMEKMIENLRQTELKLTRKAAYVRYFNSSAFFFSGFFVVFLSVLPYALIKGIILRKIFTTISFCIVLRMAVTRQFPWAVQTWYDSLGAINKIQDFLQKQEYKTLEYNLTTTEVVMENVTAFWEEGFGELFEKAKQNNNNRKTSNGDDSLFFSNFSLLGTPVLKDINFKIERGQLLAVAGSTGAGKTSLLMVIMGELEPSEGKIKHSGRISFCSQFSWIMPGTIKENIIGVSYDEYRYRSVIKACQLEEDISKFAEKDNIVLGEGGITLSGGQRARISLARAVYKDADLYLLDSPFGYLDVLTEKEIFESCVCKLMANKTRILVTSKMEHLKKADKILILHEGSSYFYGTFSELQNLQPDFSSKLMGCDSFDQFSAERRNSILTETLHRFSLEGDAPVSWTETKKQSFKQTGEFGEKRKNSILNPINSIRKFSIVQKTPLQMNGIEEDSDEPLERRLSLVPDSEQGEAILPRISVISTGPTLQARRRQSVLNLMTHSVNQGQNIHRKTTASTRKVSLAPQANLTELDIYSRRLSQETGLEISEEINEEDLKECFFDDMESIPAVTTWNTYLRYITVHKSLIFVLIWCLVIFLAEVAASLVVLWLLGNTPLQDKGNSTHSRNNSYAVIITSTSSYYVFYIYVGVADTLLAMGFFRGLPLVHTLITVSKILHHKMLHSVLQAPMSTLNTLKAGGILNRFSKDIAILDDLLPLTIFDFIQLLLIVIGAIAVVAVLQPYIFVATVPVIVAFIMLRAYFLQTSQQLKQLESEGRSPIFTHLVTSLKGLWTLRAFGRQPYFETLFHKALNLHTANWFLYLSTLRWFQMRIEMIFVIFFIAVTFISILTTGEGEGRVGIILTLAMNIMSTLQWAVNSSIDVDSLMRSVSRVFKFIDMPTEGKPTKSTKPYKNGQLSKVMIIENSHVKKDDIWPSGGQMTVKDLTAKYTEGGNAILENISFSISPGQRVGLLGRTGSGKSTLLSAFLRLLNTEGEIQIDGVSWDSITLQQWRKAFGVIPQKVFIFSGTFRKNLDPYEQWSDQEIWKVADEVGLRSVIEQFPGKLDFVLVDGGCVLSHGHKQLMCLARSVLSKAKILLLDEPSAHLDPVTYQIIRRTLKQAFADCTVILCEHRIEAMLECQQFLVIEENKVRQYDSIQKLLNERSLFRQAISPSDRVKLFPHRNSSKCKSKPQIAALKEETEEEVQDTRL
row,Compound,Corr Activity (NAUC)
1,CN(C(=O)Cn1nc(-c2cccc(C#N)c2)c2oc(CN3CCCC3)cc2c1=O)c1ccc2c(c1)OC(F)(F)O2 [Example 200],++ (NAUC 70-40% of positive control)
2,CCN(C(=O)Cn1nc(-c2cc(C#N)cc(OC)c2)c2oc(C(F)F)cc2c1=O)c1ccc2c(c1)OC(F)(F)O2 [Example 190],+++ (NAUC>70% of positive control)
3,Cc1cc2c(cc1N(C)C(=O)Cn1nc(-c3cc(C#N)cc(C(F)F)c3)c3oc(C(=O)NC(C)(C)C)cc3c1=O)OC(F)(F)O2 [Example 145],++ (NAUC 70-40% of positive control)
4,Cc1cc(C#N)cc(-c2nn(CC(=O)N3CCCc4c3ccc3c4OC(F)(F)O3)c(=O)c3ccoc23)c1 [Example 163],+++ (NAUC>70% of positive control)
5,CCN(C(=O)Cn1nc(-c2cc(C(C)(C)C)cc(C(C)(C)C)c2)c2[nH]cnc2c1=O)c1ccc2c(c1)OC(F)(F)O2 [Example 280],+ (NAUC<40% of positive control)
6,Cc1cc(F)cc(-c2nn(CC(=O)N(c3ccc4c(c3)OC(F)(F)O4)C3CC3)c(=O)c3nc[nH]c23)c1 [Example 385],++ (NAUC 70-40% of positive control)
7,CCN(C(=O)Cn1nc(-c2cccc(C#N)c2)c2oc(C(=O)N3CCCC34CC4)cc2c1=O)c1ccc2c(c1)OC(F)(F)O2 [Example 207],+++ (NAUC>70% of positive control)
8,N#Cc1cc(Cl)cc(-c2nn(CC(=O)N(c3ccc4c(c3)OC(F)(F)O4)C3CC3)c(=O)c3nc[nH]c23)c1 [Example 369],+++ (NAUC>70% of positive control)
9,CCN(C(=O)Cn1nc(-c2cc(C)cc(C#N)c2)c2occc2c1=O)c1ccc2c(c1)OC(F)(F)O2 [Example 84],+++ (NAUC>70% of positive control)
10,CCN(C(=O)Cn1nc(-c2cc(F)cc(OC)c2)c2[nH]cnc2c1=O)c1ccc2c(c1)OC(F)(F)O2 [Example 261],+++ (NAUC>70% of positive control)
11,CCN(C(=O)Cn1nc(-c2cccc(Cl)c2)c2oc(C(F)F)cc2c1=O)c1ccc2c(c1)OC(F)(F)O2 [Example 186],+++ (NAUC>70% of positive control)
12,Cc1cc(Cl)cc(-c2nn(CC(=O)N(c3ccc4c(c3)OC(F)(F)O4)C3CC3)c(=O)c3nc[nH]c23)c1 [Example 392],+++ (NAUC>70% of positive control)
13,N#Cc1cc(-c2nn(CC(=O)N(c3ccc4c(c3)OC(F)(F)O4)C3CC3)c(=O)c3nc[nH]c23)cc(C(F)(F)F)c1 [Example 404],++ (NAUC 70-40% of positive control)
14,COc1cc(Cl)cc(-c2nn(CC(=O)N(c3ccc4c(c3)OC(F)(F)O4)C3CC3)c(=O)c3nc[nH]c23)c1 [Example 379],++ (NAUC 70-40% of positive control)
15,Cc1nc2ccc(N(C)C(=O)Cn3nc(-c4cccc(Cl)c4)c4c(c3=O)CCC4)cc2o1 [Example 48],++ (NAUC 70-40% of positive control)
16,CCN(C(=O)Cn1nc(-c2cc(F)cc(OC)c2)c2oc(C3CC3)cc2c1=O)c1ccc2c(c1)OC(F)(F)O2 [Example 228],+++ (NAUC>70% of positive control)
17,CCN(C(=O)Cn1nc(-c2cccc(C#N)c2)c2oc(C(=O)NC(C)(C)C)cc2c1=O)c1ccc2c(c1F)OC(F)(F)O2 [Example 147],+++ (NAUC>70% of positive control)
18,CCN(C(=O)Cn1nc(-c2cc(C)cc(F)c2)c2[nH]cnc2c1=O)c1ccc2c(c1)OC(F)(F)O2 [Example 262],+++ (NAUC>70% of positive control)
19,CCN(C(=O)Cn1nc(-c2cc(Cl)cc(Cl)c2)c2occc2c1=O)c1ccc2c(c1)OC(F)(F)O2 [Example 174],++ (NAUC 70-40% of positive control)
20,CCN(C(=O)Cn1nc(-c2ccc(Cl)c(Cl)c2)c2[nH]cnc2c1=O)c1ccc2c(c1)OC(F)(F)O2 [Example 322],+++ (NAUC>70% of positive control)
